From PMC8058733, “A pain killer without analgesic tolerance designed by co-targeting PSD-95-nNOS interaction and α2-containning GABAARs” (Theranostics, 2021)
Entries after “also recorded” stand apart in the source; their conditions may differ.

How the values were obtained:
[1] = Identification of metabolites of ZL006-05 in plasma (UPLC-UV/Q-TOF MS); assay type: in vivo; conditions: rats
Description: ZL006-05 was given to rats by intravenous injection (i.v., 6.0 mg/kg) and oral administration (i.g., 90 mg/kg) respectively. Plasma samples were collected at pre-dose and 0.25, 0.5, 2 and 4 h for i.v. and 0.5, 1, 2 and 4 h for i.g after a single dose administration. Pre-dose plasma samples were used as control blank. After vortex and centrifugation, supernatant was removed and dried out by nitrogen blowing instrument at 40 °C and then re-dissolved with 100 μL water/ACN (50/50, v/v). The resulting samples were injected and analyzed by UPLC-UV/Q-TOF MS. Metabolites were separated with ACQUITY UPLC HSS T3 C18 column (2.1 × 100 mm I.D., 1.7 µm I.D.) with column temperature at 45 °C and flow rate at 0.4 mL/min, detected by UV (200-600 nm). Masslynx V4.1 of Waters was used for data acquiring, MetaboLynx XS with Masslynx V4.1 was used for data analysis.
Supplementary Figure 3. Proposed metabolic pathways of ZL006-05 in rats. […]
of ZL006-05, including M2-2 (glucuronide conjunction), M3-2 (Mono-oxidation & […]
parent drug were found in plasma after oral administration of ZL006-05, including M1 (Oxidation by de-H2), M2-1 and M2-2 (glucuronide conjunction), M3-1 and M3-2 (Mono-oxidation & glucuronide conjunction). Based on the chromatogram of UPLC- […]
oral dosing, the proposed metabolic pathways of ZL006-05 in blood were summarized. i.v.: intravenous injection; i.g.: oral administration.
(1 picture or pasted object on this page, not shown here)

[2] = system: laminae I excitatory neurons in the SDH; experiment: mIPSCs/mEPSCs recordings from acute spinal slices of chronically treated rats; assay type: in vivo, rat; conditions: rats, ZL006-05 0.3 mg/d intrathecal infusion ×11 d
Description: Osmotic minipumps (models 1004 for mouse and 2ML4 for rat; Alzet) and intrathecal cannulas (0.61 mm outer diameter and 0.28 mm inner diameter for mouse, 0.99 mm outer diameter and 0.58 mm inner diameter for rat) were filled with a solution of PBS. Cannulas were inserted into the subarachnoid space through the space between the L5 and L6 vertebrae and the tip of the catheter was implanted at the L5 spinal segmental level.
All solutions were bubbled with 95% O2 -5% CO2.
For mPSCs measurements, whole-cell recordings were made from putative excitatory neurons in superficial dorsal horn using low-resistance pipettes (4-8 MΩ). Before mPSCs measurements, excitatory neurons were distinguished from inhibitory neurons by firing pattern analysis according to the established relationship between neuronal firing pattern and its neurotransmitter phenotype, [32]-[34] For mEPSCs measurement, the membrane potential was held at -60 mV. […] Tetrodotoxin (0.5 μM) and bicuculline (20 μM) were added to block action potentials and GABAA receptor-mediated currents respectively. For mIPSCs measurement, the membrane potential was held at -70 mV, microelectrodes were filled with internal pipette solution containing CsCl 140, HEPES 10.0, MgATP 4.0, NaGTP 3.0, EGTA 1.0, MgCl2 1.0, CaCl2 0.3 (in mM). […]. […] Each recording lasts more than 5 min. Data were analyzed using Mini software. Up to 120 events from each neuron were selected at a fixed sampling interval to generate cumulative probability.

[3] = target: T1, α3β3γ2 GABAARs (Homo sapiens, UniProt P18507+P28472+P34903); experiment: Potentiation of GABA-evoked currents, whole-cell patch-clamp in HEK293 cells transiently expressing recombinant GABAARs; assay type: cell-based; conditions: α3β3γ2
T1 construct: Shanghai Genechem Co.,Ltd (γ2 plasmid); host or cells: HEK293
T1 sequence (P34903 29-492): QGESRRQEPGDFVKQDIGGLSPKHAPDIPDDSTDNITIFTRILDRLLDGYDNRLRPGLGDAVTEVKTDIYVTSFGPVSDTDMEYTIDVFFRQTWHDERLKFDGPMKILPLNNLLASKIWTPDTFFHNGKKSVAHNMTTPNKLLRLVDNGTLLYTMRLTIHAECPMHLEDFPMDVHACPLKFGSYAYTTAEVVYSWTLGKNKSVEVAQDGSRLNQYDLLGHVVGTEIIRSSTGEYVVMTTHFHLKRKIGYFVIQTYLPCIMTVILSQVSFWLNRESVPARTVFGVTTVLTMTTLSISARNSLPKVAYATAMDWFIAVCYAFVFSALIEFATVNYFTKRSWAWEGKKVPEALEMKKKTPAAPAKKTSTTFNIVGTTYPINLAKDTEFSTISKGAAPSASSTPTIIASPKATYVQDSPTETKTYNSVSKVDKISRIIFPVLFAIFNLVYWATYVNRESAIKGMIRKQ
T1 sequence (P28472 26-473): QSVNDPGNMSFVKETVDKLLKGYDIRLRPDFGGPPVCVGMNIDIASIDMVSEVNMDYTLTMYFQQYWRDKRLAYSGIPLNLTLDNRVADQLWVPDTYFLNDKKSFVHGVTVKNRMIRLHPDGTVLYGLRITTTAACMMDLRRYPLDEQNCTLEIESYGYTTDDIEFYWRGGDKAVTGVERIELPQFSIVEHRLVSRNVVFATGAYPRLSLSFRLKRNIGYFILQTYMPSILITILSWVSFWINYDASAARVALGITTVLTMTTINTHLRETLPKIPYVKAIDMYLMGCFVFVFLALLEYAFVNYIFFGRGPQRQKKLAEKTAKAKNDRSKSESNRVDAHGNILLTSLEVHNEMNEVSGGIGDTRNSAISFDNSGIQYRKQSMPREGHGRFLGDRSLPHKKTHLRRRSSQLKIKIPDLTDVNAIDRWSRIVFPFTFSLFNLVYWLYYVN
T1 sequence (P18507 40-475): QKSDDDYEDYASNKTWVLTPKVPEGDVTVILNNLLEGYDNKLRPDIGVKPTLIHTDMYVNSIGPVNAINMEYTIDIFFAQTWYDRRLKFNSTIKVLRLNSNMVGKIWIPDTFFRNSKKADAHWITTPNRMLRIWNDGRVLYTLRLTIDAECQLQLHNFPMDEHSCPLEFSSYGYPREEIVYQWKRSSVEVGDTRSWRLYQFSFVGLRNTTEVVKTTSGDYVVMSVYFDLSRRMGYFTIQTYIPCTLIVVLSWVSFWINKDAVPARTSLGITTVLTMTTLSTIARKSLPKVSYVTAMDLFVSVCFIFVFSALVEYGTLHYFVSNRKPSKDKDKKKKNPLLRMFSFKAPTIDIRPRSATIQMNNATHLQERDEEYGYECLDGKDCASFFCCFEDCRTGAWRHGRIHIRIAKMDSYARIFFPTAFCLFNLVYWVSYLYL
Description: (§1) The affinities of drugs for α1, α2, α3 and α5 subunits were studied in the HEK293 cells (from FuHeng Biology, Shanghai, China) transiently expressing recombinant GABAARs (α1β2γ2, α2β3γ2, α3β3γ2 and α5β2γ2) as described previously. Briefly, the HEK293 cells were cultured in MEM medium supplemented with 10% FBS (fetal bovine serum, Gibico), 1% L-glutamine (Gibco) and 1% mycillin (Gibco). Before transfection, the cells were subcultured onto a 3.5cm dish at the ratio of 1:2. Then, the plasmids of α1/α2/α3/α5 (Origene), β2/β3 (Origene) and γ2 (Shanghai Genechem Co.,Ltd ) (5μg total DNA, ratio 1:1:2) were transfected using Fugene®HD transfection reagent (Promega). The γ2 subunit contained GFP from IRES (internal ribosomal entry site) and was used as a marker of the successful transfection. Cells were used for electrophysiology recording 18-36 hours after transfection.
(§2) Electrophysiology recordings from HEK293 cells were performed as described previously. Briefly, whole-cell patch-clamp recordings of GABA-evoked currents were made at 30 °C with the holding potential of -60 mV. The internal solution (solution in recording electrodes) contained (in mM): 120 CsCl, 10 EGTA, 10 HEPES, 4 MgCl2, 0.5 GTP, 2 ATP and pH was adjusted to 7.4 with CsOH and the external solution contained (in mM): 150 NaCl, 10 KCl, 2 CaCl2, 1 MgCl, 10 HEPES, 10 Glucose and pH was adjusted to 7.4 with NaOH. ACSF was bubbled continuously with carbogen (95%O2 and 5%CO2). For the recording of GABA-evoked currents, the slides were transferred to a recording chamber, which was perfused with ACSF at a rate of 4 ml/min. The cells were viewed under upright microscopy (Olympus), and GFP-positive cells were selected to record the currents. The interval time between each different dose of GABA was controlled, 3 to 5 minutes to avoid the desensitization of GABAARs.

[4] = target: T2, α1β2γ2 GABAARs (Homo sapiens, UniProt P14867+P18507+P47870); experiment: as above; assay type: cell-based; conditions: α1β2γ2
T2 construct: Shanghai Genechem Co.,Ltd (γ2 plasmid); host or cells: HEK293
T2 sequence (P14867 28-456): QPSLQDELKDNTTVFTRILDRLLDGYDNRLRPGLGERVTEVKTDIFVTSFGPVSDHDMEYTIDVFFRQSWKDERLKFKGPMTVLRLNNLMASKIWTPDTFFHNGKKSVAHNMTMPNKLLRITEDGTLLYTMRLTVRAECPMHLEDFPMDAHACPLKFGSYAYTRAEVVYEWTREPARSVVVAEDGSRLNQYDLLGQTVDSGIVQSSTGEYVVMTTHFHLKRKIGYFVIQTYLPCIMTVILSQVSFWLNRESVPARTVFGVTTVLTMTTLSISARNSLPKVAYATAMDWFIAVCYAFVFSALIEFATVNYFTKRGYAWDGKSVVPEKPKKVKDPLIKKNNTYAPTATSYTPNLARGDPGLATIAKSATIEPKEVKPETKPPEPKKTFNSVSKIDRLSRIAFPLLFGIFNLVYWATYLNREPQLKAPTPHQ
T2 sequence (P47870 25-512 limits assumed): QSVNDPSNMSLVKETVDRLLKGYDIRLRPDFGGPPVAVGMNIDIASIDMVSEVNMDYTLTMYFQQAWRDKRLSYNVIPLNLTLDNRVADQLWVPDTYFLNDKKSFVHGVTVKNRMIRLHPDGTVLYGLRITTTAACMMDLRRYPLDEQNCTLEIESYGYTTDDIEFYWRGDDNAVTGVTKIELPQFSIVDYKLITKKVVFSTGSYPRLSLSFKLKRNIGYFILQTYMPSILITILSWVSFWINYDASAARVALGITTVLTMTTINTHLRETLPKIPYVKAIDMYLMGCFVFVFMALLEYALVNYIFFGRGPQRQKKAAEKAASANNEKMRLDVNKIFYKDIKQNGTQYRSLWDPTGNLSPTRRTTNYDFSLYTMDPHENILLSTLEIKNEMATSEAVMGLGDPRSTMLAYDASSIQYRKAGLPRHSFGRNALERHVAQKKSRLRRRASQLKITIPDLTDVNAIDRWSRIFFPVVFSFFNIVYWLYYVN
T2 sequence (P18507 40-475): as the sequence (P18507 40-475) above
Description: as §1, §2

[5] = target: T3, α2β3γ2 GABAARs (Homo sapiens, UniProt P18507+P28472+P47869); experiment: as above; assay type: cell-based; conditions: α2β3γ2
T3 construct: Shanghai Genechem Co.,Ltd (γ2 plasmid); host or cells: HEK293
T3 sequence (P47869 29-451): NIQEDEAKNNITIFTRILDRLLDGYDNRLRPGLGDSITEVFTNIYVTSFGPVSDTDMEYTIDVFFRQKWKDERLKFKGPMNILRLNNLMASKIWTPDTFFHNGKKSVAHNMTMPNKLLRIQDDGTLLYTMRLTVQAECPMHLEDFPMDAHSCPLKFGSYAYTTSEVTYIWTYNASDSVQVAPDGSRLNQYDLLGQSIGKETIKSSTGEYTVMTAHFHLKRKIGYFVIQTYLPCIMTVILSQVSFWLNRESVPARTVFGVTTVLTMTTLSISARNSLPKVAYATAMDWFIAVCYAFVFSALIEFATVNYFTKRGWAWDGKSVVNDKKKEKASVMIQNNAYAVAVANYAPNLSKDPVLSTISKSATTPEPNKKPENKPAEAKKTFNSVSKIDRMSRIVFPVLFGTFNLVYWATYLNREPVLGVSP
T3 sequence (P28472 26-473): as the sequence (P28472 26-473) above
T3 sequence (P18507 40-475): as the sequence (P18507 40-475) above
Description: as §1, §2

For CC1(C)C2CCC1(C)C(OC(=O)c1ccc(NCc3cc(Cl)cc(Cl)c3O)cc1O)C2 (stereo not drawn) [ZL006-05], which “Metabolites found in plasma” value ([1]; after intravenous injection: M2-2, M3-2, M4) is on record?
The value was “Three metabolites except parent drug”.

And the “Main metabolite in plasma (UPLC-UV)” value ([1]; after iv dosing, 6.0 mg/kg)?
The value was “parent drug (M0)”.

And the “Metabolites found in plasma” value ([1]; after oral administration: M1, M2-1, M2-2, M3-1, M3-2)?
Its value is “five metabolites”.

What about the “Main metabolite in plasma (UPLC-UV)” value ([1]; after oral dosing, 90 mg/kg) of the same molecule?
Its value is “parent drug (M0) and glucuronide conjunction (M2-2)”.

And the mEPSCs [2]?
Its mEPSCs is “without affecting mEPSCs”.

And the mIPSCs [2]?
The mIPSCs was “significantly increased mIPSCs amplitude”.

What about the “Effect on α3GABAAR (in words)” value [3] of the same molecule?
The value was “low efficacy on α3GABAAR”.

And the “Effect on GABA-evoked currents of α1-containing GABAAR (in words)” value [4]?
The value was “does not potentiate α1GABAAR”.

And the “Effect on α2-containing GABAAR (in words)” value [5]?
Its value is “very high affinity to α2-containing GABAAR; also recorded: very high efficacy and potency on α2GABAARs”.
